In brackets after ≈: the same amount, converted by molar mass.
conditions: buffer; pH 7.4; 200.0 µM

Row | solubility kinetic [µg/mL] | Compound
1 | 4.1 (≈ 11.8 µM) | O=[N+]([O-])c1ccccc1S(=O)(=O)N1CCN(c2ccccn2)CC1
2 | > 44.9 | Cc1ccsc1/C=C(\CC(=O)O)c1nc2ccccc2o1
3 | < 0.6 | CC(=O)C(c1ccccc1)C(c1ccccc1)C(C)[N+](=O)[O-] (stereo not given)
4 | > 49 | Nc1nc(-c2ccc(Oc3ccccc3)cc2)c(CC(=O)O)s1
5 | 1.7 (≈ 5.09 µM) | O=C(Nc1ccccn1)c1sc2cc([N+](=O)[O-])ccc2c1Cl
6 | > 52.7 | Cc1nc(-c2ccc(S(=O)(=O)NCc3ccccn3)s2)cs1
7 | > 36.8 | O=C(NC1CCS(=O)(=O)C1)c1cccs1 (stereo not given)
8 | > 40.5 | O=S(=O)(NC1=NCCCCC1)c1ccc(F)cc1
9 | 40.1 (≈ 142 µM) | COCCCNC(=S)Nc1ccc(C)cc1[N+](=O)[O-]
10 | > 52.1 | CC(C(=O)O)N1C(=O)C2C3c4ccccc4C(c4ccccc43)[C@@H]2C1=O (stereo not given in full)
11 | > 34.7 | CC1CCN(C(=O)CSCC(=O)O)CC1
12 | > 43.9 | Cc1csc2c(NCCCN3CCOCC3)ncnc12
13 | 2.2 (≈ 8.26 µM) | CCn1c(COc2ccc(C)cc2)nc2ccccc21
14 | 0.9 (≈ 2.92 µM) | Cc1cc2oc(=O)cc(CN3CCOCC3)c2c(C)c1Cl
15 | > 43.2 | O=S(=O)(Cc1ccccc1)Cc1cnc(Cl)s1
16 | 11.1 (≈ 34.8 µM) | Cc1ccc(N(Cc2ccccc2)C(=O)c2cccc(F)c2)cc1
17 | 32.3 (≈ 114 µM) | O=C(CCSc1ccc(Cl)cc1)NC1CCCC1
18 | < 0.3 | Cc1cc(NC(=O)c2cc(-c3cccc(OCC(C)C)c3)nc3ccccc23)no1
19 | 38.1 (≈ 141 µM) | CCC(CC)NC(=O)c1cccc(Br)c1
20 | 27.1 (≈ 106 µM) | c1ccc(N2CCN(C3CC4CCC3C4)CC2)cc1 (stereo not given)
21 | > 42 | COC(=O)Cn1c(Cc2ccccc2)nc2ccccc21

Row | solubility kinetic [µg/mL] | Compound
22 | 0.6 (≈ 1.84 µM) | O=C(Nc1cccc(-c2cnc3ccccc3n2)c1)c1ccncc1
23 | 30.4 | Cc1cccc(OCc2nc3ccccc3n2C)c1.Cl
24 | > 46.9 | Cc1ccc(C)c(NC(=O)CN(C)C(=O)/C=C/c2ccco2)c1
25 | > 43.3 | CC1CCCN(S(=O)(=O)c2csc(C(N)=O)c2)C1 (stereo not given)
26 | > 68.2 | Cn1c(N)c(C(=O)c2ccc(Cl)c(S(=O)(=O)N3CCCCCC3)c2)c(=O)n(C)c1=O
27 | 3.2 (≈ 6.41 µM) | Cc1ccc(S(=O)(=O)N2CCCCC2)cc1C(=O)OCC(=O)N1c2ccccc2NC(=O)C1(C)C
28 | 36.8 (≈ 141 µM) | O=C(C1CCCO1)N1CCN(c2ccccn2)CC1 (stereo not given)
29 | 1.1 (≈ 3.25 µM) | Cc1ccc(NC(=O)Nc2cc(S(C)(=O)=O)ccc2Cl)cc1
30 | > 47.9 | Cc1ccc(NC(=O)CCC(=O)NNC(=O)C(C)(C)C)c(C)c1
31 | < 0.2 | Cc1nc(C)c(-c2csc(Nc3ccc(O)cc3C)n2)s1
32 | > 48.7 | Cc1ccc(Nc2nc(-c3ccccc3)c(CC(=O)O)s2)cc1
33 | 2.9 (≈ 8.94 µM) | Cc1cc(NC(=O)CSc2nc3ccccc3cc2C#N)no1
34 | 47.9 (≈ 133 µM) | COc1cccc(S(=O)(=O)Nc2cccc(C(=O)N3CCCC3)c2)c1
35 | 0.9 (≈ 2.94 µM) | CCOC(=O)c1sc(Nc2ccc(OCC)cc2)nc1C
36 | 47.8 (≈ 146 µM) | Cc1ccc(NC(=O)CN2CCN(C(=O)c3ccco3)CC2)cc1
37 | 42.9 | CN1CCC(N(C)C(=O)c2ccccc2F)CC1.Cl
38 | 47.5 (≈ 138 µM) | Cc1cc(C(=O)N2CCN(C(=O)c3ccco3)CC2)ccc1[N+](=O)[O-]
39 | 16.4 (≈ 42.2 µM) | Cc1cccc(OC(C)C(=O)Nc2ccc(S(=O)(=O)N3CCCC3)cc2)c1 (stereo not given)
40 | < 0.1 | CCCc1cc(NCc2ccccn2)n2c(nc3ccccc32)c1C#N
41 | 44.7 (≈ 136 µM) | CCCS(=O)(=O)N1CCCC(C(=O)c2cccc(Cl)c2)C1 (stereo not given)
42 | 0.5 (≈ 1.21 µM) | Cc1noc(-c2ccc(Cl)cc2)c1C(=O)O/N=C(\N)c1ccc(C(C)(C)C)cc1

Row | solubility kinetic [µg/mL] | Compound
43 | > 44 | CN1CCCN(C(=O)CNC(=O)c2ccccc2F)CC1
44 | < 0.6 | O=C(NCCC1=CCCCC1)c1cc2ccccc2oc1=O
45 | > 50.5 | O=C(Cc1ccc(Cl)cc1)NNC(=O)C1CC=CCC1C(=O)O (stereo not given)
46 | 44 (≈ 131 µM) | CCOC(=O)C1(Cc2ccc(Cl)cc2)CCN(C2CCC2)CC1
47 | > 44.9 | Cc1cnc(C(=O)OCC(=O)NC(=O)c2ccccc2)cn1
48 | 2.4 (≈ 7.75 µM) | COc1cccc(NC(=O)c2nc(SC)ncc2Cl)c1
49 | > 56.9 | CC(C)n1c(SCC(=O)N2CCCCC2)nc2c1c(=O)n(C)c(=O)n2C
50 | > 29 | CC(=O)Nc1ccc2nsnc2c1
51 | > 40.9 | Cc1csc(SCC(=O)Nc2nncs2)n1
52 | > 51 | O=C(CSc1ncc(C(F)(F)F)cc1Cl)N1CCNC1=O
53 | 19.4 (≈ 77.2 µM) | CN(C)/C=N/c1sc2c(c1C(N)=O)CCCC2
54 | > 27.2 | CSc1nc2ncnc(N)c2[nH]1
55 | 33.3 (≈ 114 µM) | Cc1nc2c(C)cccc2c2c1CCN2c1ccccc1F
56 | 0.9 (≈ 2.49 µM) | NC(=NC(=O)c1cccc(C(F)(F)F)c1)c1ccc(C(F)(F)F)cn1
57 | > 37.1 | CC(C)NC(=O)/C(C#N)=C\c1ccc(N(C)C)o1
58 | > 46.7 | CCc1ccc(OC)c(S(=O)(=O)NCc2cccs2)c1
59 | > 56.3 | CSc1ccccc1NC(=O)COC(=O)CCC(=O)c1ccc(F)cc1
60 | 4.5 (≈ 14.7 µM) | O=[N+]([O-])c1ccc(NC(=S)NCc2ccc(F)cc2)cc1
61 | 11.1 (≈ 32 µM) | CC(C)NC(=O)c1ccc(N(Cc2ccccc2)S(C)(=O)=O)cc1
62 | 0.7 (≈ 2.11 µM) | CC(=O)Nc1nc2c(C)cc(NC(=O)C3CCCCC3)cc2s1
63 | 0.6 (≈ 1.76 µM) | Cn1c(N)c(C(=O)Nc2ccc(-c3ccccc3)cc2)sc1=S

Row | solubility kinetic [µg/mL] | Compound
64 | > 38.2 | Cc1ccccc1S(=O)(=O)N1CCN(C)CC1
65 | 32.3 (≈ 108 µM) | O=C(NCCNC(=O)c1ccccc1O)c1ccccc1O
66 | 1 (≈ 3.44 µM) | COc1cccc(NC(=O)NCc2ccccc2Cl)c1
67 | > 30 | Cc1cccc2c3c([nH]c12)CCN(C)C3
68 | 1.6 (≈ 5.38 µM) | Cc1ccc2nc(-c3ccsc3)c(NC3CCCC3)n2c1
69 | > 50.4 | O=C(O)c1ccc2c(=O)n3c(nc2c1)/C(=C/c1ccc(F)cc1)CC3
70 | 5.1 (≈ 18.9 µM) | Cc1ccc(NC(=S)NCc2ccccc2)cc1C
71 | > 49.6 | CCOC(=O)C1CCCN(C(=O)c2cc3ccc(OC)cc3[nH]2)C1 (stereo not given)
72 | > 42.5 | CN(C)/C=N/NC(=O)C1Cc2c(ccc3ccccc23)O1 (stereo not given)
73 | > 40.2 | CC1=C([N+](=O)[O-])C(c2ccccc2Cl)NC(=O)N1 (stereo not given)
74 | > 34.4 | Cc1ccc(CN2CCS(=O)(=O)CC2)o1
75 | 25.3 (≈ 101 µM) | O=C(O)Cn1c(-c2ccccc2)cc2ccccc21
76 | > 44.6 | O=C(O)CC(c1cccc(O)c1)N1Cc2ccccc2C1=O (stereo not given)
77 | 48.5 (≈ 146 µM) | CCCCN(CC(=O)NCc1ccc(F)cc1)C(=O)c1ccco1
78 | 7 (≈ 20.5 µM) | O=C(COC(=O)/C=C/c1cc(Br)ccc1F)NC1CC1
79 | 26.8 (≈ 100 µM) | COc1cccc(C=Nc2ccc3c(c2)CCC3)c1O
80 | > 43.4 | COC(=O)c1c(C)oc(C)c1S(=O)(=O)NC(C)(C)C
81 | > 44 | Cc1cc(Nc2ccccc2)n(-c2ccc(C(=O)O)cc2)n1
82 | 11.7 (≈ 34.3 µM) | N#CC1=C(N)NC(=S)C(C(N)=O)C1c1ccc(Cl)cc1Cl (stereo not given)
83 | 18.7 (≈ 45.4 µM) | Cc1ccc(S(=O)(=O)N(C)c2ccc(OC(=O)COc3ccccc3)cc2)cc1
84 | 3.4 (≈ 9.31 µM) | CC(C)N(Cc1cc2ccccc2[nH]c1=O)C(=O)c1cccc([N+](=O)[O-])c1

Row | Compound | solubility kinetic [µg/mL]
85 | Cc1noc(C)c1CNCc1ccccc1.O=C(O)C(=O)O | > 45.9

— PubChem BioAssay AID1996
